The values that follow are results of earlier work, collected in paper PMC8241576 (Biophysical Journal, 2021).

Each structure is given as a SMILES string.

For this data set the following is noted: in water at 25°C.

As for `Cl.N=c1ccc2c(-c3ccccc3C(=O)O)c3ccc(N)cc3oc-2c1` [Rh110, Rhodamine 110], the diffusion coefficient was 4.4 × 10^−6 cm^2 s^−1 and the “hydrodynamic radius of free dye” value is reported as approximately 0.56 nm.
